#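 Exposure lasted 48 hours, with cells grown in 96-well plates and compounds tested at five concentrations. TGI marks complete inhibition of growth.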
# Assays:
# Test in all cases: DTP human tumour cell line panel, 48 h
# A549 NSCLC = test system: A549 NSCLC
# NCI-H460 lung = test system: NCI-H460 lung
# RXF 393 renal = test system: RXF 393 renal
# SK-MEL-5 melanoma = test system: SK-MEL-5 melanoma
# UACC-257 melanoma = test system: UACC-257 melanoma
# DU-145 prostate = test system: DU-145 prostate
# HCC-2998 colon = test system: HCC-2998 colon
# PC-3 prostate = test system: PC-3 prostate
# T-47D breast = test system: T-47D breast
# BT-549 breast = test system: BT-549 breast
Structure (SMILES),TGI (A549 NSCLC) [µM],TGI (NCI-H460 lung) [µM],TGI (RXF 393 renal) [µM],TGI (SK-MEL-5 melanoma) [µM],TGI (UACC-257 melanoma) [µM],TGI (DU-145 prostate) [µM],TGI (HCC-2998 colon) [µM],TGI (PC-3 prostate) [µM],TGI (T-47D breast) [µM],TGI (BT-549 breast) [µM]
OC12c3ccccc3C1CCCCCC21OCCCO1 (configuration not stated),> 100,> 100,> 100,> 100,> 100,,,,,
O=c1[nH]nc(-c2ccc(F)cc2)cc1-c1ccccc1,> 100,> 100,> 100,> 100,> 100,> 100,> 100,> 100,> 100,
C=CCn1c(=N)/c(=C(\N)O)s/c1=C1/SC(=S)N(c2ccc(C)cc2)C1=O,> 100,> 100,,> 100,> 100,,,,,
COc1cc2c(c(OC)c1OC)-c1ccc(SC)c(=O)cc1C(CC(=O)Oc1cccc(F)c1)C2 (configuration not stated),> 100,4.62,> 100,> 55.8,> 100,,0.426,,,
CCn1c(CSc2nc(-c3ccccc3)c(-c3ccccc3)[nH]2)n[nH]c1=S,> 100,> 100,,> 100,> 100,,> 100,,,
COc1cc(C2c3cc4c(cc3[C@@H](N(C)c3ccc(N(C)C)cc3)C3COC(=O)C23)OCO4)cc(OC)c1O (some centres not stated),,24.2,,13.7,18,,20.8,,,
O=[N+]([O-])C(C(Cl)=C(Cl)Cl)=C(n1cncn1)n1cncn1,> 100,> 100,43.4,31.8,> 65.7,31.6,98.1,> 100,51,36
Cc1ccc(C2C(Cl)C(=O)N2NC(=O)c2ccc(N)cc2)cc1 (configuration not stated),71.7,35.5,,29.7,66.1,,> 100,,,
CC12CCC(CC1(Cl)Cl)C2 (configuration not stated),> 100,> 100,,> 100,> 100,,,> 100,> 100,> 100
CC[n+]1c(/C=C/c2ccc(N(CCCl)CCCl)cc2)ccc2cc(I)ccc21,13.8,10.1,3.77,,2.61,,2.58,,,
OC12CCC3(O)c4ccccc4C3C1c1ccccc12 (configuration not stated),> 100,> 100,> 100,> 100,> 100,,,,,
CN1NC(c2ccccc2)=C(C#N)C(=O)CC1c1ccc(Br)cc1 (configuration not stated),> 100,> 100,> 100,57.7,> 100,,> 100,,,
O=C(O)c1ccc(Nc2nc3nn(Cc4ccccc4)cc3c(=O)s2)cc1,> 100,> 100,> 100,> 100,> 100,,> 100,,,

# From PubChem BioAssay (NCI)
